Results: paper PMC12683216, “Using High‐Throughput Screening to Identify Crosslinking Peptides That Control Cell‐Mediated Matrix Degradation” (Advanced Healthcare Materials, 2025)
Like-named read-outs stand apart in the source and are kept apart here. Where a SMILES comes first, the peptide text is derived from it. [ ]: non-standard residue; d: D form. βAla = NCCC(=O)O

Tests used:
[1] = tested on: MMP-14; experiment: Soluble peptide degradation, Cells condition (LC-MS); format: in vitro ADME, human; conditions: human, with NSC 405 020 (MMP-14 inhibitor); Figure 3C; 50 µM peptide, media on hUVECs with MMP-14 inhibitor NSC 405 020 10 µM; 24 h; LC-MS; N = 6; read-out: Fraction of peptide remaining after 24 hours: hUVEC +Inhibitor
Procedure, shortened: (§1)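 Pooled synthetic TAILS-derived peptides added to hUVEC or hMSC cultures (Cells) or cell-free conditioned media (Media); MMP-14 inhibitor NSC 405 020 at 10 µM final. Samples taken at 0 and 24 h, acidified, analysed by LC-MS; peak areas normalised to 50 µM βFβA6 internal standard, 24 h/0 h gives fraction remaining.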

[2] = as above; format: in vitro ADME, human; conditions: human, 24 h, LC-MS; for remaining at 24 h: Figure 2B heatmap, ratio to βFβA6 internal standard, 24 h / 0 h, N = 5
Procedure, shortened: as §1

[3] = tested on: hMSCs; experiment: as above; format: in vitro ADME, human
Procedure, shortened: as §1

[4] = tested on: hUVECs; experiment: as above; format: in vitro ADME, human; conditions: 24 h, LC-MS
Procedure, shortened: as §1

[5] = tested on: T1, MMP-14; experiment: Peptide degradation with added exogenous recombinant MMP-14 (LC-MS); format: in vitro ADME; conditions: human, Figure 7 study, recombinant MMP-14 0.5 nM, 24 h, LC-MS, N = 3 with technical triplicates
T1 construct: purchased antibodies.com
Description: To verify that MMP‐14 can degrade the KLVAD‐LM and PanMMP peptides, recombinant MMP‐14 was added to the different peptides, both in PBS and in the Cell and Media culture conditions (Figure 7 ). Peptides were incubated under three conditions: in fresh cell culture media (“Blank”), in media with cells present (“Cells”), and in cell‐conditioned media (“Media”). This was done for both hMSCs and hUVECs, and was also done with and without the addition of exogenous MMP.
The extent of peptide degradation was quantified for samples both with and without the addition of exogenous MMP‐14. […] Error bars indicate ± standard deviation, N = 3 with technical triplicates.
hUVECs (75000 per well) or hMSCs (36000 per well) were seeded into a 48 well plate, and 500 µL media was added to the wells. […] The peptide libraries were dissolved at a stock solution of 10 mM total peptide content. For libraries containing 38 peptides, 95 µL of the stock solution was added to each well; for libraries with 19 peptides, 47.5 µL was added to each well, and media was taken at 0 and 24 h. Add 4 µL of acetic acid to all collected media in the LC‐MS plates and store them in a −80 °C freezer to prevent further proteolytic degradation. From each sample, 10 µL of crude solution was introduced by the LC‐MS through a Thermo Scientific Vanquish LC System (Thermo Fisher Scientific), which outputted to a Thermo Scientific LTQ XL Linear Ion Trap Mass Spectrometer (Thermo Fisher Scientific). The sampled mixture was trapped on a column (ProntoSIL C18 AQ, 120 Å, 3 µm, 2.0 x 50 mm HPLC Column, PN 0502F184PS030, MAC‐MOD Analytical Inc.). The samples were loaded onto the column with a solvent containing acetonitrile/water, 5:95 (v/v) containing 1% acetic acid at a flow rate of 300 µL min^−1 and held for 1 min. The sample was then eluted from the column with a linear gradient of 5–40% Solvent B (1% acetic acid in acetonitrile) at the same flow rate for 5 min. This was followed by a 1 min ramp up to 100% Solvent B, where it was re‐equilibrated with Solvent A (1% acetic acid) to 5% solvent B over the course of 1 min and held there for 2 min. The column temperature was kept at a constant 29 °C, and the mass spectrometer was operated in positive ion mode. Using a Heated ESI, the Source Voltage was set to 4.1 kV, and the capillary temperature was 350 °C. For non‐library degradation studies, 2.5 µL of 10 mM peptide stock solution for each peptide was added.
To assess the activity of the conditioned media, the media were divided into two equal portions. One portion was used for a standard degradation study, while the other was cultured for an additional 24 h before the PanMMP and KLVADLMASAE were added. After 24 h of incubation, the media were collected for further analysis. To assess the impact of recombinant MMP‐14 on PanMMP and KLVADLMASAE, recombinant MMP‐14 (antibodies.com) was dissolved in the media at a concentration of 0.5 nM. The remaining steps followed the standard degradation study protocol.
For all degradation studies using soluble peptides, a non‐proteolytically degradable NH2‐βFβAβAβAβAβAβA‐amide (βFβA6) peptide, where βF is β‐phenylalanine and βA is β‐alanine, was added at a 50 µM concentration and used as an internal standard. Peptide degradation ratios were measured by LC‐MS and analyzed by Xcalibur. The relative concentrations of the peptide were calculated by the ratio of the peak area of the peptide and the peak area of βFβA6.

[6] = Soluble peptide degradation, Media condition (cell-conditioned media, LC-MS); format: in vitro ADME, human; conditions: 24 h, LC-MS
Procedure, shortened: (§2)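 Pooled peptide library added to medium conditioned by hUVECs or hMSCs with cells removed. Fraction remaining after 24 h measured by LC-MS (positive-ion ESI). Value is peptide peak area relative to 50 µM non-degradable βFβA6 internal standard.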

[7] = as above; format: in vitro ADME, human; conditions: 24 h, LC-MS; remark: listed apart in the source
Procedure, shortened: as §2

[8] = Figure 3C, 50 µM soluble peptide, N = 6

Q: For `CC[C@H](C)[C@H](NC(=O)CNC(=O)[C@H](CCC(N)=O)NC(=O)[C@@H]1CCCN1C(=O)CNC(=O)CCNC(C)=O)C(=O)N[C@@H](Cc1c[nH]c2ccccc12)C(=O)NCC(=O)N[C@@H](CCC(N)=O)C(=O)NCCC(N)=O` [PanMMP, reference compound] (Ac-[βAla]GPQGIWGQ[βAla]-NH2), which remaining at 24 h, 50 µM [1] is on record?
A: 95%

Q: What about the remaining at 24 h ([2]; hMSCs in culture with fresh media (Cells condition), pooled TAILS-derived soluble peptides (Ac-βAla N-terminus, βAla-amide C-terminus) in media on hMSCs (36000 per well, 48 well plate, 500 µL), read-out: Fraction of peptide remaining at 24 hours: hMSC Cells) of the same molecule?
A: 39%

Q: And the metabolised at 24 h ([2]; hMSCs in culture with fresh media (Cells condition), Figure 2B screen, hMSCs, read-out: amount of degradation in the Cells condition)?
A: 61%

Q: What about the remaining at 24 h ([2]; hUVECs in culture with fresh media (Cells condition), pooled TAILS-derived soluble peptides in media on hUVECs (75000 per well, 48 well plate, 500 µL), read-out: Fraction of peptide remaining at 24 hours: hUVEC Cells) of the same molecule?
A: 69%

Q: And the “peptide remaining, Cells + MMP-14 inhibitor, hMSCs” value ([3]; 24 h, 50 µM)?
A: 78%

Q: And the “Fraction of peptide remaining after 24 hours: hMSC +Inhibitor” value ([3]; Figure 3C, 50 µM peptide, media on hMSCs with MMP-14 inhibitor NSC 405 020 10 µM, 24 h, LC-MS, N = 6)?
A: 0.78

Q: And the “peptide remaining after 24 h, Cells condition, hMSCs” value ([3]; Figure 3C, 50 µM soluble peptide, LC-MS, N = 6)?
A: 35%

Q: And the “Fraction of peptide remaining after 24 hours: hMSC Cells” value ([3]; Figure 3C, individually synthesized soluble peptide, 50 µM, media on hMSCs, 24 h, LC-MS, ratio to βFβA6, N = 6)?
A: 0.35

Q: What about the “Fraction of peptide remaining after 24 hours: hUVEC Cells” value ([4]; Figure 3C, individually synthesized soluble peptide, 50 µM, media on hUVECs, ratio to βFβA6, N = 6) of the same molecule?
A: 0.77

Q: What about the “degradation after 24 h, Cells + Inhibitor, cultured with hUVECs” value ([4]; NSC 405 020 10 µM) of the same molecule?
A: greater than 2%

Q: And the remaining at 24 h, 50 µM ([5]; read-out: peptide remaining in hMSC conditioned media with added MMP‐14)?
A: 84%

Q: And the remaining at 24 h, 50 µM ([5]; read-out: peptide remaining in hUVEC conditioned media with added MMP‐14)?
A: 72%

Q: What about the “peptide remaining, Media condition, hUVECs” value [6, 8] of the same molecule?
A: 89%

Q: What about the “Fraction of peptide remaining after 24 hours: hUVEC Media” value ([6]; Figure 3C, individually synthesized soluble peptide, 50 µM, hUVEC-conditioned media without cells, ratio to βFβA6, N = 6) of the same molecule?
A: 0.89

Q: And the remaining at 24 h, 50 µM ([6]; human, hUVEC-conditioned media without cells, no exogenous MMP-14, Figure 7 study, N = 3 with technical triplicates, read-out: peptide remaining in hUVEC conditioned media without exogenous MMP-14)?
A: 78%

Q: And the remaining at 24 h ([6]; human, Figure 2B heatmap, pooled TAILS-derived soluble peptides in 24 h hUVEC-conditioned media without cells, ratio to βFβA6 internal standard, 24 h / 0 h, N = 5, read-out: Fraction of peptide remaining at 24 hours: hUVEC Media)?
A: 93%

Q: What about the “peptide remaining, Media condition, hMSCs” value [7, 8] of the same molecule?
A: 85%

Q: And the “Fraction of peptide remaining after 24 hours: hMSC Media” value ([7]; Figure 3C, individually synthesized soluble peptide, 50 µM, hMSC-conditioned media without cells, ratio to βFβA6, N = 6)?
A: 0.85

Q: And the remaining at 24 h, 50 µM ([7]; human, hMSC-conditioned media without cells, no exogenous MMP-14, Figure 7 study, N = 3 with technical triplicates, read-out: peptide remaining in hMSC conditioned media without exogenous MMP-14)?
A: 85%

Q: What about the remaining at 24 h ([7]; human, Figure 2B heatmap, pooled TAILS-derived soluble peptides in 24 h hMSC-conditioned media without cells, ratio to βFβA6 internal standard, 24 h / 0 h, N = 5, read-out: Fraction of peptide remaining at 24 hours: hMSC Media) of the same molecule?
A: 86%
